Legend:
Conditions in all cases: 72 h
[1] = tested on: myeloid leukemia patient primary cells Pat.10; assay: area under dose-response curve (viability, 1 nM-10 uM) (fraction (0-1)); higher = more sensitive
Method in brief: (§1)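 Seventy compounds were pre-printed on 384-well plates at five tenfold concentrations between 1 and 10,000 nM, in duplicate. Thawed mononuclear cells purified by Ficoll from AML or CML patients were added at 10,000 cells/well in RPMI 1640 with 10% FBS for 72 h. Viability by CellTiter-Glo was normalised to DMSO and 10 μM proteasome-inhibitor wells. Where stated, area under the curve was taken from log-logistic fits made with the drc and PharmacoGx R packages, each fit having four parameters.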

[2] = tested on: myeloid leukemia patient primary cells Pat.11; assay: as above
Method in brief: as §1

[3] = tested on: myeloid leukemia patient primary cells Pat.12; assay: as above
Method in brief: as §1

[4] = tested on: myeloid leukemia patient primary cells Pat.13; assay: as above
Method in brief: as §1

[5] = tested on: myeloid leukemia patient primary cells Pat.14; assay: as above
Method in brief: as §1

[6] = tested on: myeloid leukemia patient primary cells Pat.15; assay: as above
Method in brief: as §1

[7] = tested on: myeloid leukemia patient primary cells Pat.1; assay: as above
Method in brief: as §1

[8] = tested on: myeloid leukemia patient primary cells Pat.2; assay: as above
Method in brief: as §1

[9] = tested on: myeloid leukemia patient primary cells Pat.3; assay: as above
Method in brief: as §1

[10] = tested on: myeloid leukemia patient primary cells Pat.5; assay: as above
Method in brief: as §1

[11] = tested on: myeloid leukemia patient primary cells Pat.6; assay: as above
Method in brief: as §1

[12] = tested on: myeloid leukemia patient primary cells Pat.7; assay: as above
Method in brief: as §1

[13] = tested on: myeloid leukemia patient primary cells Pat.8; assay: as above
Method in brief: as §1

[14] = tested on: myeloid leukemia patient primary cells Pat.9; assay: as above
Method in brief: as §1

Mono-Mac-6 = assay: cell viability (% survival relative to DMSO control); higher = less cytotoxic
Protocol: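 8x8 drug-combination matrices (0–5000 nM; rosiglitazone and lestaurtinib 0–1000 nM) were run in Mono-Mac-6 cells for 72 h with CellTiter-Glo read-out. Survival is normalised to DMSO and 10 µM bortezomib and clipped at 100%.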

C=C(C=NNC(=N)N)NNC(=N)N [Mitoguazone]
Conditions	area under dose-response curve
[1]	0.574
[2]	< 0.0301
[3]	< 0.0301
[4]	< 0.0301
[5]	0.604
[6]	0.161
[7]	< 0.0301
[8]	< 0.0301
[9]	0.412
[10]	0.715
[11]	0.484
[12]	0.528
[13]	< 0.0301
[14]	0.6

Nc1nc(Cl)nc2c1ncn2[C@H]1C[C@H](O)[C@@H](CO)O1 [Cladribine]
Conditions	area under dose-response curve
[1]	0.768
[3]	0.438
[4]	0.7
[5]	0.616
[6]	0.193
[7]	< 0.0301
[8]	0.463
[9]	0.652
[10]	0.799
[11]	0.611
[12]	0.62
[13]	0.609
[14]	0.762

C[C@H](NC(=O)c1sccc1OCc1ccc(Cl)cc1)c1ccccc1
Conditions	area under dose-response curve
[1]	0.13
[2]	< 0.0301
[3]	< 0.0301
[4]	0.0406
[5]	0.121
[6]	< 0.0301
[7]	0.0329
[8]	0.0349
[9]	0.124
[10]	0.338
[11]	0.0893
[12]	0.253
[13]	< 0.0301
[14]	0.195

COC(=O)[C@]12CCC(C)(C)C[C@H]1[C@H]1C(=O)C=C3[C@@]4(C)C=C(C#N)C(=O)C(C)(C)[C@@H]4CC[C@@]3(C)[C@]1(C)CC2 [Bardoxolone methyl]
Conditions	area under dose-response curve
[1]	0.589
[2]	0.111
[3]	0.0322
[4]	0.397
[5]	0.433
[6]	0.207
[7]	0.183
[8]	0.28
[9]	0.618
[10]	0.699
[11]	0.345
[12]	0.705
[13]	0.328
[14]	0.813

O=C(C1CC1)N1CC[C@@H](C=C2NNC(=O)N2c2ccc(-c3ccc4occc4c3)cc2)C1 + O=C(c1c2ccccc2cc2ccccc12)N1CCC(N2CCC[C@@H](C(=O)N3CCOCC3)C2)CC1 [CP-640186]
cell viability [%], Mono-Mac-6
Conditions	drug1 concentration 5 nM	drug1 concentration 10 nM	drug1 concentration 50 nM	drug1 concentration 100 nM	drug1 concentration 500 nM	drug1 concentration 1000 nM	drug1 concentration 5000 nM
drug2 concentration 5 nM	77.8	> 100	88.2	84.8	85.5	88.8	> 100
drug2 concentration 10 nM	> 100	> 100	> 100	90.7	81.2	> 100	63.7
drug2 concentration 50 nM	99.3	89.7	> 100	> 100	> 100	> 100	> 100
drug2 concentration 100 nM	87.7	> 100	> 100	99.8	> 100	91.2	87.4
drug2 concentration 500 nM	95.2	87	87.4	86.2	> 100	> 100	79.5
drug2 concentration 1000 nM	88.8	> 100	> 100	84.9	> 100	98.8	99.4
drug2 concentration 5000 nM	> 100	70.2	98.1	99.4	81.6	72.4	> 100

Reference: the supplement of paper PMC8671470
